Source: patent publication US9949945B2, “3′ equatorial-fluorine-substituted neuraminidase inhibitor compounds, compositions and methods for the use thereof as anti-virals” (THE UNIVERSITY OF BRITISH COLUMBIA, priority 2012, dated 2018)
Read-outs that look alike come from different tables or passages of the source.

Legend:
[1] = molecular target: B/Perth wt (B/Perth/211/01) NA (Influenza B virus, UniProt Q3S340); format: biochemical
B/Perth (B/Perth/211/01) = experiment: microbe, parasite or virus in culture; format: cell-based; settings: read-out: IC50 in the plaque size reduction assay, B/Perth
[2] = tested on: A/Mississippi H1N1 (A/Mississippi/3/01); experiment: microbe, parasite or virus in culture; format: cell-based; settings: read-out: IC50 in the plaque size reduction assay, A/Mississippi H1N1
A/Fukui H3N2 = experiment: microbe, parasite or virus in culture; format: cell-based; settings: read-out: IC50 in the plaque size reduction assay, A/Fukui H3N2
[3] = molecular target: Brisbane H1N1 (A/Brisbane/59/07) neuraminidase (Influenza A virus, UniProt D5F1R0)
[4] = molecular target: California H1N1 (A/California/07/09) neuraminidase (Influenza A virus, UniProt C3W6G3)
[5] = molecular target: Hong Kong H3N2 (A/HongKong/01/68) neuraminidase (Influenza A virus, UniProt Q91MA2); experiment: biochemical
Human Neu2 = Human Neu2 (Homo sapiens, UniProt Q9Y3R4); experiment: Time-dependent inactivation of human Neu2; format: biochemical; settings: 1 mM inactivator, 27° C., pH 5.6
Protocol: All experiments were carried out in a 100 mM Na2HPO4/50 mM Citric acid buffer, pH 5.6. […] The data were analyzed using the program GraFit 4.0 (Erithacus software) (R. Leatherbarrow, Erithacus Software Ltd., 4th Edition, Staines, UK, (1990)). […] Residual enzyme activity was determined at appropriate time intervals by the addition of an aliquot of the inactivation mixture to an assay buffer solution containing 8 mM 4-trifluoromethylumbelliferyl sialic acid (CF3MUSA). The initial linear increase in absorbance at 400 nm was used as a measure of the enzyme activity. These initial rates at each time point were plotted as a function of time to obtain time-dependent exponential decay curves from which ki obs could be obtained using the equation: (rate)t=(rate)t=0e^([…])+offset IC50 Enzyme Inhibition Assays

[6] = mouse, in vivo
in vivo = settings: Balb/c, mouse, 1 mg/kg
[7] = molecular target: B/Florida wt (B/Florida/4/2006) NA (Influenza B virus, UniProt J7JZT1); format: biochemical
A/Fukui H3N2 wt NA = A/Fukui H3N2 wt NA (Influenza A virus, UniProt A0A0F6NYK2); format: biochemical; settings: read-out: IC50 in the enzyme inhibition assay, A/Fukui H3N2
[8] = molecular target: Sol Isl sH1N1 wt (A/Solomon Islands/3/2006) NA (Influenza A virus, UniProt B4URD9); format: biochemical
[9] = molecular target: sH1N1/01 wt (A/Mississippi/3/01 H1N1) NA (Influenza A virus, UniProt Q3M0T6); format: biochemical
[10] = read-out: IC50 in the enzyme inhibition assay, B/Perth

Chain of Human Neu2 (Q9Y3R4 whole entry): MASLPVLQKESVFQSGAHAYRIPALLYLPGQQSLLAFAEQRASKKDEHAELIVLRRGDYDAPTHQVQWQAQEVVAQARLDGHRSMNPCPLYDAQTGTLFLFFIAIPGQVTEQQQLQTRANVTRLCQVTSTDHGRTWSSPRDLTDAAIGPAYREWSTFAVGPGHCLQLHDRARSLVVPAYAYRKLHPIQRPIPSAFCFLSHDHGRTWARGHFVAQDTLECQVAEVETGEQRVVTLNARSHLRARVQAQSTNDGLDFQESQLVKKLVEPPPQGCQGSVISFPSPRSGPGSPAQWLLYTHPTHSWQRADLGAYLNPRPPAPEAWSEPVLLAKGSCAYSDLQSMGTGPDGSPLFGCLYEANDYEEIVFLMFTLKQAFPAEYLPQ

Row | Molecule | IC50 [1, 10] | IC50 (B/Perth (B/Perth/211/01); Influenza B virus, MDCK) | IC50 ([2]; Influenza A virus, H1N1, MDCK) | IC50 (A/Fukui H3N2; Influenza A virus, H3N2, MDCK) | khyd [3] | t1/2 (inac) [3] | t1/2 (reac) [3] | Ki [4] | khyd [4] | t1/2 (inac) [4] | t1/2 (reac) [4] | Ki [5] | further results
1 | CC(=O)NC1C(N)C(F)C(F)(C(=O)O)OC1[C@H](O)[C@H](O)CO (stereo in doubt) [FeqAmDFSA, 5-Acetamido-2,4,5-trideoxy-4-amino-2α, 3β-difluoro-α-D-erythro-L-gluco-nonulo-pyranosonate] | 5.4 nM | 10 to 100 nM | 100 nM | 1000 nM | 0.0027 0.0059 0.0150 0.0140 0.0045 min^−1 | 0.9 0.2 0.4 0.8 — min | 256 117 46 49 153 min | 370 nM | 0.0027 0.0059 0.0150 0.0140 0.0045 min^−1 | 0.9 0.2 0.4 0.8 — min | 256 117 46 49 153 min |  | 
2 | CC(=O)NC1C(NC(=N)N)C(F)C(F)(C(=O)O)OC1[C@H](O)[C@H](O)CO (stereo in doubt) [FeqGuDFSA, 5-Acetamido-2,4,5-trideoxy-2α, 3β-difluoro-4-guanidino-α-D-erythro-L-gluco-nonulopyranosonate] | 4.5 nM | 1 nM | 1 nM | 10 nM | 0.0005 0.0015 0.001 0.0019 0.0005 min^−1 | 0.3 0.5 0.9 0.5 0.8 min | 1380 460 690 363 1380 min | 100 nM | 0.0005 0.0015 0.001 0.0019 0.0005 min^−1 | 0.3 0.5 0.9 0.5 0.8 min | 1380 460 690 363 1380 min | 150 nM | inactivation of Neu2 (Human Neu2): occurred slowly; IC50 ([1]; read-out: IC50 B/Perth wt): 4.5 nM
3 | CC(=O)N[C@H]1C([C@H](O)[C@H](O)CO)O[C@@](F)(C(=O)O)C(F)[C@H]1O (stereo partly drawn) [DFSA, 5-Acetamido-5-deoxy-3-fluoro-D-erythro-β-L-manno-2-nonulopyranosonic acid fluoride] | 70 nM | 1000 nM | 1000 nM | 100000 nM |  |  |  |  |  |  |  |  | 
4 | CC(=O)N[C@@H]1C(N)C(F)[C@](F)(C(=O)O)OC1[C@H](O)[C@H](O)CO (some centres unmarked) [FaxAmDFSA] | 210 nM | 100 nM | 100 nM | 1000 nM | 0.0001 0.0002 0.0001 0.0003 <0.0001 min^−1 | 2.1 2.5 1.7 4.0 20.8 min | 6900 3450 6900 2300 >6900 min | 4280 nM | 0.0001 0.0002 0.0001 0.0003 <0.0001 min^−1 | 2.1 2.5 1.7 4.0 20.8 min | 6900 3450 6900 2300 >6900 min | 240 nM | 
5 | CC(=O)N[C@@H]1C(NC(=N)N)C(F)[C@](F)(C(=O)O)OC1[C@H](O)[C@H](O)CO (some centres unmarked) [FaxGuDFSA] | 54 nM | 10 to 100 nM | 10 nM | 100 nM | <0.0001 <0.0001 <0.0001 <0.0001 <0.000l min^−1 | 7.4 9.2 20.9 6.8 20.2 min | >6900 >6900 >6900 >6900 >6900 min | 350 nM | <0.0001 <0.0001 <0.0001 <0.0001 <0.000l min^−1 | 7.4 9.2 20.9 6.8 20.2 min | >6900 >6900 >6900 >6900 >6900 min | 70 nM | inactivation of Neu2 (Human Neu2): occurred slowly; IC50 ([1]; read-out: IC50 B/Perth wt): 54 nM; plasma half-life after intranasal administration vs IV injection [6]: significantly longer; bioavailability (in vivo): 92%
6 | Oseltamivir |  |  |  |  |  |  |  |  |  |  |  |  | IC50 [7]: 22.6 nM; IC50 (A/Fukui H3N2 wt NA): 1.7 nM
7 | Zanamivir |  |  |  |  |  |  |  |  |  |  |  |  | IC50 [8]: 2.2 nM; IC50 ([9]; read-out: IC50 in the enzyme inhibition assay, A/Mississippi H1N1): 1.9 nM; IC50 ([9]; read-out: IC50 sH1N1/01 wt): 1.9 nM; IC50 (B/Perth (B/Perth/211/01)): 10 nM; IC50 [2]: ≤ 1 nM; IC50 (A/Fukui H3N2): 100 nM
